Results: PubChem BioAssay (NCI)
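Tested at 5 concentrations; 48 h exposure; 96-well plates; endpoints linearly interpolated, else capped at highest concentration. GI50 marks 50% less growth. TGI: concentration producing complete growth inhibition.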

What was measured:
Test in all cases: NCI anticancer screen, dose series, 48 h
[1] = system: OVCAR-3 ovarian
[2] = system: HCC-2998 colon
[3] = system: NCI-H23 lung
[4] = system: NCI-H522 lung
[5] = system: U251 CNS
[6] = system: KM12 colon
[7] = system: A549 NSCLC
[8] = system: NCI/ADR-RES ovarian
[9] = system: SK-MEL-2 melanoma
[10] = system: T-47D breast
[11] = system: SN12C renal
[12] = system: A498 renal
[13] = system: SNB-75 CNS
[14] = system: UACC-62 melanoma
[15] = system: TK-10 renal
[16] = system: K-562 leukemia
[17] = system: NCI-H460 lung
[18] = system: SR leukemia
[19] = system: COLO 205 colon
[20] = system: HCT-15 colon
[21] = system: HL-60(TB) leukemia
[22] = system: SF-268 CNS
[23] = system: HS 578T breast
[24] = system: M14 melanoma
[25] = system: OVCAR-5 ovarian
[26] = system: SK-MEL-28 melanoma
[27] = system: BT-549 breast
[28] = system: SK-OV-3 ovarian
[29] = system: SK-MEL-5 melanoma
[30] = system: MCF7 breast
[31] = system: NCI-H226 lung
[32] = system: MALME-3M melanoma
[33] = system: MDA-MB-231 breast
[34] = system: HT29 colon
[35] = system: RPMI-8226 leukemia
[36] = system: HOP-92 NSCLC
[37] = system: PC-3 prostate
[38] = system: HOP-62 NSCLC
[39] = system: MOLT-4 leukemia
[40] = system: OVCAR-8 ovarian
[41] = system: 786-0 renal
[42] = system: IGROV1 ovarian
[43] = system: SF-295 CNS
[44] = system: EKVX NSCLC
[45] = system: SF-539 CNS
[46] = system: CCRF-CEM leukemia
[47] = system: HCT-116 colon
[48] = system: SW-620 colon
[49] = system: RXF 393 renal
[50] = system: ACHN renal
[51] = system: MDA-MB-435
[52] = system: DU-145 prostate
[53] = system: LOX IMVI melanoma
[54] = system: UACC-257 melanoma
[55] = system: OVCAR-4 ovarian
[56] = system: SNB-19 CNS
[57] = system: CAKI-1 renal

CC1=C(CN(O)C(N)=O)C2=C(C)C3(CC3)[C@@](C)(O)C(=O)C2=C1
GI50 [1]: 260 nM | TGI [1]: 769 nM | GI50 [2]: 174 nM | TGI [2]: 414 nM | GI50 [3]: 109 nM | TGI [3]: 544 nM | GI50 [4]: 1230 nM | TGI [4]: 4650 nM | GI50 [5]: 337 nM | GI50 [6]: 530 nM | TGI [6]: 5410 nM | GI50 [7]: 118 nM | TGI [7]: 1220 nM | GI50 [8]: 381 nM | TGI [8]: 3110 nM | GI50 [9]: 356 nM | TGI [9]: 1210 nM | GI50 [10]: 214 nM | TGI [10]: 1720 nM | GI50 [11]: 373 nM | TGI [11]: 2670 nM | GI50 [12]: 175 nM | TGI [12]: 359 nM | GI50 [13]: 215 nM | TGI [13]: 464 nM | GI50 [14]: 224 nM | TGI [14]: 562 nM | GI50 [15]: 308 nM | TGI [15]: 909 nM | GI50 [16]: 16300 nM | TGI [16]: > 100000 nM | GI50 [17]: 45.2 nM | TGI [17]: 909 nM | GI50 [18]: 7600 nM | TGI [18]: > 80900 nM | GI50 [19]: 185 nM | TGI [19]: 517 nM | GI50 [20]: 267 nM | TGI [20]: 883 nM | GI50 [21]: 279 nM | TGI [21]: 3550 nM | GI50 [22]: 236 nM | TGI [22]: 1560 nM | GI50 [23]: 503 nM | TGI [23]: 3000 nM | GI50 [24]: 269 nM | TGI [24]: 699 nM | GI50 [25]: 367 nM | TGI [25]: 2270 nM | GI50 [26]: 229 nM | TGI [26]: 505 nM | GI50 [27]: 367 nM | TGI [27]: 1590 nM | GI50 [28]: 305 nM | TGI [28]: 1090 nM | GI50 [29]: 195 nM | TGI [29]: 409 nM | GI50 [30]: 921 nM | TGI [30]: 10100 nM | GI50 [31]: 235 nM | TGI [31]: 644 nM | GI50 [32]: 205 nM | TGI [32]: 424 nM | GI50 [33]: 324 nM | TGI [33]: 1780 nM | GI50 [34]: 316 nM | TGI [34]: > 34500 nM | GI50 [35]: 7190 nM | TGI [35]: > 100000 nM | GI50 [36]: 208 nM | TGI [36]: 618 nM | GI50 [37]: 398 nM | TGI [37]: 5240 nM | GI50 [38]: 178 nM | TGI [38]: 996 nM | GI50 [39]: 21300 nM | TGI [39]: > 100000 nM | GI50 [40]: 337 nM | TGI [40]: 6680 nM | GI50 [41]: 343 nM | GI50 [42]: 208 nM | TGI [42]: 940 nM | GI50 [43]: 252 nM | TGI [43]: 1160 nM | GI50 [44]: 346 nM | TGI [44]: 1530 nM | GI50 [45]: 216 nM | TGI [45]: 556 nM | GI50 [46]: 29600 nM | TGI [46]: > 100000 nM | GI50 [47]: 267 nM | GI50 [48]: 10800 nM | TGI [48]: > 100000 nM | GI50 [49]: 141 nM | TGI [49]: 290 nM | GI50 [50]: 236 nM | TGI [50]: 572 nM | GI50 [51]: 662 nM | TGI [51]: 2370 nM | GI50 [52]: 43.9 nM | TGI [52]: 1110 nM | GI50 [53]: 402 nM | TGI [53]: 2040 nM | GI50 [54]: 280 nM | TGI [54]: 765 nM | GI50 [55]: 285 nM | TGI [55]: 1550 nM | GI50 [56]: 469 nM | TGI [56]: 6180 nM | GI50 [57]: 253 nM | TGI [57]: 1350 nM
